Earlier results in patent EP0324210A1 (UOP, priority 1988, dated 1989).

Conditions: aqueous solution, 25°C

With O=C(O)CC(O)(CC(=O)O)C(=O)O [citric acid] as the molecule, how does the “acid dissociation constant pKa₃” value read?
The value was 5.40.
